{"source": "patent US11590167B2", "about": "“Methods and compositions for use of therapeutic T cells in combination with kinase inhibitors” (Juno Therapeutics, Inc., priority 2016, dated 2023)", "key": {"anti-CD19 CAR T cells [1]": {"system": "anti-CD19 CAR T cells", "experiment": "Cytolytic activity of anti-CD19 CAR T cells co-cultured with K562-CD19 target cells (IncuCyte)", "type": "cell-based, human", "settings": "E:T 2.5:1, four days, three healthy donors; ibrutinib 0.5-5000 nM; compound of Formula (II) 50 to 5000 nM", "source_text": "To generate CAR-expressing T cells, T cells were isolated by immunoaffinity-based enrichment from three healthy human donor subjects, and cells from each donor were activated and transduced with a viral vector encoding an anti-CD19 CAR. The CAR contained an anti-CD19 scFv, an Ig-derived spacer, a human CD28-derived transmembrane domain, a human 4-1BB-derived intracellular signaling domain and a human CD3 zeta-derived signaling domain. The nucleic acid construct encoding the CAR also included a truncated EGFR (tEGFR) sequence for use as a transduction marker, separated from the CAR sequence by a self-cleaving T2A sequence.\nCAR-expressing CD4+ and CD8+ cells were mixed 1:1 for each donor, individually, and the pooled cells for each donor assessed in vitro under various conditions.\nCAR T cells generated as described above were plated in triplicate on Poly-D-Lysine plates and then co-cultured with ibrutinib-resistant, CD19-expressing target cells (K562 cells transduced to express CD19, K562-CD19) at an effector to target (E:T) ratio of 2.5:1. The targets cells were labeled with NucLight Red (NLR) to permit tracking of target cells by microscopy. […] Cytolytic activity was assessed by measuring the loss of viable target cells over a period of four days, as determined by red fluorescent signal (using the IncuCyte® Live Cell Analysis System, Essen Bioscience)."}, "RLK/TXK": {"molecular_target": "T1, RLK/TXK (Homo sapiens, UniProt P42681)", "T1 sequence (P42681 1-527)": "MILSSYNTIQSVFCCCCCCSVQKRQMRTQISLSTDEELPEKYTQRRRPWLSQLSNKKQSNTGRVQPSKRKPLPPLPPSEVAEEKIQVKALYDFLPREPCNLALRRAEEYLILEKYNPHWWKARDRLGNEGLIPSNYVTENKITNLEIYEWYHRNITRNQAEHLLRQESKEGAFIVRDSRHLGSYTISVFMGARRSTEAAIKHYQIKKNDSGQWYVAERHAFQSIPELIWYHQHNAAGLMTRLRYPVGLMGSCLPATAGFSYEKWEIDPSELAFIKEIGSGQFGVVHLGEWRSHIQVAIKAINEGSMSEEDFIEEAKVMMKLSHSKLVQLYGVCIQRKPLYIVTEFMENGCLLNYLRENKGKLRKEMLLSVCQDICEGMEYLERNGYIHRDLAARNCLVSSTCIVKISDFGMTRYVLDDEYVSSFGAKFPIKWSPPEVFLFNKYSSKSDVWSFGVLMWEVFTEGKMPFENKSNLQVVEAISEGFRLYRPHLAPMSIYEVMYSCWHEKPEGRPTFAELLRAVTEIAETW", "settings": "literature value given as embodiment; read-out: IC50 value, inhibitory activity against RLK/TXK; cited from earlier work"}, "[2]": {"system": "CAR+ T cells harvested from bone marrow", "experiment": "Ex vivo immunophenotyping (t-SNE) of CAR+ T cells harvested from bone marrow", "type": "in vivo, NSG mice", "settings": "day 12 post CAR T transfer", "description": "(§1) NSG mice described in Example 2 were intravenously injected on day 0 with 5×10^5 Nalm-6 cells expressing firefly luciferase. […] A bridging experiment confirmed that administration of ibrutinib by drinking water was equivalent to oral gavage administration (data not shown). To permit assessment of the effect of a combination therapy with the inhibitor, a suboptimal dose of anti-CD19 CAR T cells was i.v. injected into the mice at 5×10^5/mouse at day 5. As a control, mice were administered the vehicle control without administration of the CAR-T cells or inhibitor.\nCells were assessed for surface markers CD44, CD45RA, CD62L, CD154, CXCR3, CXCR4, PD-1 by flow cytometry and T-distributed stochastic neighbor embedding (t-SNE) high dimensional analysis was performed using FlowJo software. […] Using multivariate t-SNE FACS analysis based on pooled analysis from three mice per group, 4 distinct population clusters were identified (FIG. 8B). FACs histograms showing the individual expression profiles of CD4, CD8, CD62L, CD45RA, CD44 and CXCR3 from the 4 gated t-SNE in FIG. 8A overlaid on the expression of the total population (shaded) is shown in FIG. 8C. […] Statistically significant differences are indicated as […] (*), P<0.01 (**), P<0.001 (***), P<0.0001 (****)."}, "[3]": {"settings": "observed Cmax quoted for dosage range; cited from earlier work"}, "anti-CD19 CAR-T cells": {"system": "anti-CD19 CAR-T cells", "experiment": "Serial restimulation assay, expansion of anti-CD19 CAR-T cells", "type": "cell-based, human", "description": "The ability of cells to expand ex vivo following repeated stimulations in some aspects can indicate capacity of CAR-T cells to persist (e.g., following initial activation) and/or is indicative of function and/or fitness in vivo (Zhao et al. (2015) Cancer Cell, 28:415-28). Anti-CD19 CAR-T cells generated as described above were plated in triplicate at 100,000 cells/well on 96 well Poly-D-Lysine coated plates, and irradiated target cells (K562-CD19) were added at an effector to target ratio of 2.5:1. […] A total of 7 rounds of stimulation during a 25 day culture period were carried out.\nFor each round of stimulation, the fold change in cell number and the number of doublings was determined. […] Expansion kinetics were similar in all treatment groups after three rounds of stimulation (day 11), as observed by fold change and number of population doublings. […] The cells derived from the two donors in which these differences were observed, generally, as compared to those derived from the other donor, performed less well in the serial restimulation assay in the absence of either inhibitor."}, "anti-CD19 CAR T cells [4]": {"system": "anti-CD19 CAR T cells", "experiment": "TH1 phenotype of anti-CD19 CAR T cells in serial restimulation assay (flow cytometry)", "type": "cell-based, human", "settings": "18-day serial stimulation, three donors; 500 nM ibrutinib (P<0.01); compound of Formula (II) treatment", "description": "A serial restimulation assay was performed as described above and cells were harvested at various times and analyzed by flow cytometry to assess percentage of TH1-phenotype (assessed as CD4+CXCR3+CRTH2-) T cells or TH2-phenotype (assessed as CD4+CXCR3-CRTH2+)."}, "CAR T cells": {"system": "CAR T cells", "experiment": "Activation and memory markers of CAR T cells from the serial stimulation assay (flow cytometry)", "type": "cell-based, human", "settings": "days 0, 11, 18 and 21 of serial stimulation"}, "[5]": {"system": "EGFRt+ CAR T cells and/or tumor cells", "experiment": "CAR+ T cell and tumor cell counts in blood and bone marrow of Nalm-6 bearing mice", "type": "in vivo, NSG mice", "description": "as §1"}}, "note": "pIC50: −log10 of the molar value."}
{"compound": "CC#CC(=O)N1CCC[C@H]1c1nc(-c2ccc(C(=O)Nc3ccccn3)cc2)c2c(N)nccn12", "note": "[compound of Formula (II)]", "values": [{"measurement": "cytolytic function of anti-CD19 CAR T cells against K562-CD19 target cells, normalized to untreated control", "setting": "anti-CD19 CAR T cells [1]", "result": "no negative impact on cytolytic function"}, {"measurement": "pIC50", "setting": "RLK/TXK", "result": "~6.43"}, {"measurement": "population 2 (CD8+CD44hiCXCR3hiCD45RAloCD62Lhi) and population 4 (CD4+CD44hiCXCR3intCD45RAhiCD62Lhi) compared to control mice", "setting": "[2]", "result": "An increase"}, {"measurement": "population 2 as share of CAR-T cells", "setting": "[2]; pooled from three mice", "result": 29.2, "unit": "%"}, {"measurement": "population 4 as share of CAR-T cells", "setting": "[2]; pooled from three mice", "result": 8.4, "unit": "%"}, {"measurement": "Cmax", "setting": "[3]", "result": 1800, "unit": "nM"}, {"measurement": "expansion as measured by population doublings following multiple rounds of restimulation", "setting": "anti-CD19 CAR-T cells; by day 18, CAR+ T cells from two of the three donors, each concentration assessed", "result": "observed to be enhanced"}, {"measurement": "cell counts after five rounds of stimulation (day 18)", "setting": "anti-CD19 CAR-T cells; donor 3, highest concentration tested", "result": "Non-significant, increased cell counts"}, {"measurement": "percentage of TH1 cells", "setting": "anti-CD19 CAR T cells [4]", "result": "no significant effects were observed"}, {"measurement": "additional CAR T activation or memory markers (CD25, CD38, CD39, CD45RO, CD62L, CD69, CD107a, PD-1)", "setting": "CAR T cells", "result": "No significant effects"}, {"measurement": "tumor cells in the blood or bone marrow compared to CAR+ cells with vehicle alone", "setting": "[5]; CAR+ cell treatment combined with inhibitor", "result": "significantly fewer tumor cells were detected"}, {"measurement": "circulating CAR+ T cells compared to CAR+ T cells and vehicle", "setting": "[5]; blood, days 7, 12, 19 and 26 post CAR+ T cell transfer, drinking water 25 mg/kg/day", "result": "significant increase in circulating CAR+ T cells"}, {"measurement": "number of cells in the blood", "setting": "[5]; day 19 post CAR-T cell transfer, ibrutinib p<0.05, Formula (II) p<0.001", "result": "significant increase in the number of cells in the blood"}]}
